According to patent US20120157401A1, “METHODS FOR TREATING NEUROFIBROMATOSIS” (PTC Therapeutics, Inc., priority 2009, published 2012):
Read-outs that look alike come from different tables or passages of the source.

How the values were obtained:
HT1080 cells = test: Cell cycle analysis by propidium iodide flow cytometry in HT1080 cells (percent cells in S-phase, Table 24); type: cell-based, human; conditions: HT1080 cells, 100 nM, 18 hours, normoxic; DMSO control […]
Method: Experimental Design. […] After treatment, cells were trypsinized, and stained with propidium iodide (PI) dye to measure DNA content of individual cells by flow cytometry. Output comprised histograms showing relative DNA content in 10,000 cells.
While compounds which cause greater than 20% of the cells to accumulate in S-phase at 100 nM are considered active, a larger percentage of cells may be accumulated in S-phase at lower doses depending on the Compound, as shown in FIG. 12 for example.

[1] = tested on: hypoxia-inducible endogenous VEGF expression; test: Hypoxia-inducible endogenous VEGF expression ELISA in HeLa cells, dose-response EC50 (Table 3); type: cell-based, human
Procedure, shortened: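 HeLa cells kept 24-48 h under hypoxia (1% O2, 5% CO2, nitrogen balance) with or without compound, e.g. seven concentrations; secreted VEGF in conditioned medium quantified by ELISA against a standard curve. Parallel Cell Titer Glo viability under identical conditions excludes cytotoxicity.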

[2] = Homo sapiens, HeLa, read-out: ELISA EC50 μM
[3] = Homo sapiens, HeLa cells, hypoxic conditions (1% O2), 24-48 hours, VEGF in conditioned media, read-out: ELISA EC50
[4] = Homo sapiens, HeLa cells, hypoxic conditions (1% O2), VEGF ELISA of conditioned media, read-out: ELISA EC50

SMILES | EC50 [1, 3] [µM] | also measured
O=C(Oc1ccc(Cl)cc1)N1CCc2c([nH]c3ccc(Cl)cc23)C1c1ccc(OCCN2CCOCC2)cc1 (centres unmarked) [drawing 535] |  | % Cells In S-Phase (HT1080 cells): 16.4%
O=C(Oc1ccc(F)cc1)N1CCc2c([nH]c3ccc(Cl)cc23)C1c1ccc(OCCCCCCNCCCn2ccnc2)cc1 (centres unmarked) [Compound 779] |  | EC50 [1, 2]: 0.04 to 0.2 µM
CS(=O)(=O)NCC(O)COc1ccc(C2c3[nH]c4ccc(Cl)cc4c3CCN2C(=O)Oc2ccc(Cl)cc2)cc1 (centres unmarked) [Compound 849] | 0.008 to 0.04 | 
Cc1cnc(NCCOc2ccc(C3c4[nH]c5ccc(Cl)cc5c4CCN3C(=O)Oc3ccc(Cl)cc3)cc2)s1 (centres unmarked) [#842] | < 0.008 | 
CCSCCCOc1ccc(C2c3[nH]c4ccc(Cl)cc4c3CCN2C(=O)Oc2ccc(Cl)cc2)cc1 (centres unmarked) [Compound 1552] |  | EC50 [1, 4]: < 0.008 µM
CC(C)NCCCOc1ccc(C2c3[nH]c4ccc(Cl)cc4c3CCN2C(=O)Oc2ccc(Cl)cc2)cc1 (centres unmarked) [Compound 953] |  | EC50 [1, 2]: 0.008 to 0.04 µM
CN1CCC(Oc2ccc([C@H]3c4[nH]c5ccc(Cl)cc5c4CCN3C(=O)Oc3ccc(Cl)cc3)cc2)CC1 [Compound 1694] |  | EC50 [1, 2]: < 0.008 µM
COC(=O)NCC(O)CCOc1ccc([C@H]2c3[nH]c4ccc(Cl)cc4c3CCN2C(=O)Oc2ccc(C)cc2)cc1 (some centres unmarked) [Compound 1642] |  | EC50 [1, 4]: < 0.008 µM
COCCOCCOc1ccc(C2c3[nH]c4ccc(Cl)cc4c3CCN2C(=O)Oc2ccc([N+](=O)[O-])cc2)cc1 (centres unmarked) [Compound 681] | 0.008 to 0.04 | 
COc1ccc(OC(=O)N2CCc3c([nH]c4ccc(Cl)cc34)[C@@H]2c2ccc(OCC[C@H](O)CO)cc2)cc1 [Compound 1300] | < 0.008 | 
CC(=O)Oc1ccc(C2c3[nH]c4ccc(Cl)cc4c3CCN2C(=O)Oc2ccc(Cl)cc2)cc1 (centres unmarked) [Compound 463] | 0.008 to 0.04 | 
Cc1ccc(OC(=O)N2CCc3c([nH]c4ccc(Cl)cc34)C2c2ccc(OCCCn3ccnc3)cc2)cc1 (centres unmarked) [Compound 900] | < 0.008 | 
O=C(Oc1ccc(Cl)cc1)N1CCc2c([nH]c3ccc(Br)cc23)C1c1ccc(OCC[C@H](O)CO)cc1 (some centres unmarked) [Compound 1349] |  | EC50 [1, 4]: < 0.008 µM
Cc1ccc2[nH]c3c(c2c1)CCN(C(=O)Oc1ccc(Cl)cc1)C3c1ccc(C(C)C)cc1 (centres unmarked) [Compound 344] | 0.008 to 0.04 | 
COCCN(CCCOc1cccc(C2c3[nH]c4ccc(Cl)cc4c3CCN2C(=O)Oc2ccc(F)cc2)c1)CCOC (centres unmarked) [Compound 1119] |  | EC50 [1, 2]: 0.04 to 0.2 µM
COCCOCCOc1ccc(C2c3[nH]c4ccc(Cl)cc4c3CCN2C(=O)Oc2ccccc2Cl)cc1 (centres unmarked) [Compound 674] | 0.008 to 0.04 | 
O=C(Oc1ccccc1Cl)N1CCc2c([nH]c3ccc(Cl)cc23)C1c1ccc(OCCCn2cncn2)cc1 (centres unmarked) [Compound 926] | < 0.008 | 
O=C(Oc1ccc(F)cc1)N1CCc2c([nH]c3ccc(Cl)cc23)C1c1ccc(OCCCO)cc1 (centres unmarked) [Compound 1110] | < 0.008 | 
O=C(Oc1ccc(Cl)cc1)N1CCc2c([nH]c3ccc(Cl)cc23)C1c1ccc(N2CCCC2)cc1 (centres unmarked) [Compound 984] | 0.2 to 1 | 
O=C(Oc1ccc(F)cc1)N1CCc2c([nH]c3ccc(Cl)cc23)C1c1cccc(OCCCn2ccnc2)c1 (centres unmarked) [Compound 1123] | 0.04 to 0.2 | 
COc1ccc(C2c3[nH]c4ccc(Cl)cc4c3CCN2C(=O)Oc2ccc(Cl)cc2)cc1F (centres unmarked) [Compound 1199] | 0.008 to 0.04 | 

SMILES | EC50 [1, 3] [µM] | also measured
CC1(COc2ccc([C@H]3c4[nH]c5ccc(Cl)cc5c4CCN3C(=O)Oc3ccc(Cl)cc3)cc2)COC(C)(C)OC1 [Compound 1229] | < 0.008 | 
O=C(Oc1ccccc1)N1CCc2c([nH]c3ccc(Cl)cc23)C1c1ccc(OCC[C@H](O)CO)cc1 (some centres unmarked) [Compound 1178] | < 0.008 | 
CC(CO)(CO)COc1ccc([C@H]2c3[nH]c4ccc(Cl)cc4c3CCN2C(=O)Oc2ccccc2)cc1 [Compound 1336] |  | EC50 [1, 4]: 0.008 to 0.04 µM
O=C(Oc1ccc(Cl)cc1)N1CCc2c([nH]c3ccc(Cl)cc23)C1c1ccc(NC2CCOCC2)cc1 (centres unmarked) [Compound 440] | < 0.008 | 
COc1ccc(OC(=O)N2CCc3c([nH]c4ccc(Cl)cc34)C2c2ccc(OCC(=O)N3CCN(CCCN(C)C)CC3)cc2)cc1 (centres unmarked) [Compound 1029] |  | EC50 [1, 2]: > 1 µM
Cc1ccc(OC(=O)N2CCc3c([nH]c4ccc(Cl)cc34)[C@@H]2c2ccc(OCCC(O)Cn3cncn3)cc2)cc1 (some centres unmarked) [Compound 1291] | 0.008 to 0.04 | 
CC(C)NCCCCCCOc1ccc(C2c3[nH]c4ccc(Cl)cc4c3CCN2C(=O)Oc2ccc(F)cc2)cc1 (centres unmarked) [Compound 774] |  | EC50 [1, 2]: 0.008 to 0.04 µM
O=C(Oc1ccc(F)cc1)N1CCc2c([nH]c3ccc(Cl)cc23)C1c1ccc(OCC2OCCO2)cc1 (centres unmarked) [Compound 1051] | < 0.008 | 
O=C(Oc1ccc(Cl)cc1)N1CCc2c([nH]c3ccc(Cl)cc23)[C@H]1c1ccc(OCC[C@H](O)CO)cc1 [Compound 1330] |  | EC50 [1, 4]: > 1 µM
CC1(C)OC[C@H](CCOc2ccc([C@@H]3c4[nH]c5ccc(Cl)cc5c4CCN3C(=O)Oc3ccc(Cl)cc3)cc2)O1 [Compound 1331] |  | EC50 [1, 4]: > 1 µM
O=C(COc1ccc(C2c3[nH]c4ccc(Cl)cc4c3CCN2C(=O)Oc2ccc(F)cc2)cc1)N1CCN(CCO)CC1 (centres unmarked) [Compound 1064] |  | EC50 [1, 2]: 0.008 to 0.04 µM
O=C(Oc1ccc(Cl)cc1)N1CCc2c([nH]c3ccc(Cl)cc23)C1c1ccc(OCCCN2CCCC2)cc1 (centres unmarked) [Compound 429] |  | EC50 [1, 2]: < 0.008 µM
CC(=O)NCC(O)CCOc1ccc([C@H]2c3[nH]c4ccc(Cl)cc4c3CCN2C(=O)Oc2ccc(Cl)cc2)cc1 (some centres unmarked) [Compound 1276] | < 0.008 | 
C#CCCOc1ccc([C@H]2c3[nH]c4ccc(Cl)cc4c3CCN2C(=O)Oc2ccc(Cl)cc2)cc1 [Compound 1614] |  | EC50 [1, 4]: < 0.008 µM
O=C(Oc1ccc(F)cc1)N1CCc2c([nH]c3ccc(Br)cc23)C1c1ccc(C(F)(F)F)cc1 (centres unmarked) [Compound 397] | < 0.008 | 
O=C(Oc1ccc(Cl)cc1)N1CCc2c([nH]c3ccc(Cl)cc23)[C@@H]1c1ccc(OC[C@H](O)CN2CCOCC2)cc1 [Compound 1070] |  | EC50 [1, 2]: < 0.008 µM
CS(=O)(=O)CCCOc1ccc([C@H]2c3[nH]c4ccc(Cl)cc4c3CCN2C(=O)Oc2ccc(Cl)cc2)cc1 [Compound 1648] |  | EC50 [1, 4]: < 0.008 µM
O=C(Oc1ccc(Cl)cc1)N1CCc2c([nH]c3ccc(Cl)cc23)C1c1ccc(I)cc1 (centres unmarked) [Compound 428] | < 0.008 | 
O=C(Oc1ccc(F)cc1)N1CCc2c([nH]c3ccc(Cl)cc23)C1c1ccc(OCC(O)CN2CCOCC2)cc1 (centres unmarked) [Compound 638] |  | EC50 [1, 2]: < 0.008 µM
O=C(Oc1ccc(Cl)cc1)N1CCc2c([nH]c3ccc(Cl)cc23)C1c1ccc(S(=O)(=O)N2CCOCC2)cc1 (centres unmarked) [Compound 450] |  | EC50 ([1]; HeLa cells, hypoxic conditions (1% O2), 24-48 hours, VEGF in conditioned media, read-out: ELISA EC50): 0.008 to 0.04 µM
COCCN(C)CCCOc1ccc(C2c3[nH]c4ccc(Cl)cc4c3CCN2C(=O)Oc2ccc(F)cc2)cc1 (centres unmarked) [Compound 992] |  | EC50 [1, 2]: 0.04 to 0.2 µM

SMILES | EC50 [1, 3] [µM] | also measured
CCS(=O)(=O)Nc1ccc(C2c3[nH]c4ccc(Cl)cc4c3CCN2C(=O)Oc2ccc(Cl)cc2)cc1 (centres unmarked) [Compound 958] | 0.008 to 0.04 | 
CC(C)C(=O)NCC(O)CCOc1ccc([C@H]2c3[nH]c4ccc(Cl)cc4c3CCN2C(=O)Oc2ccc(Cl)cc2)cc1 (some centres unmarked) [Compound 1626] |  | EC50 [1, 4]: < 0.008 µM
Cc1ccc(OC(=O)N2CCc3c([nH]c4ccc(Cl)cc34)[C@@H]2c2ccc(OCCC(O)CN3CCOCC3)cc2)cc1 (some centres unmarked) [Compound 1302] |  | EC50 [1, 2]: 0.04 to 0.2 µM
[H]/N=c1\scnn1CCOc1ccc(C2c3[nH]c4ccc(Cl)cc4c3CCN2C(=O)Oc2ccc(F)cc2)cc1 (centres unmarked) [Compound 1415] |  | EC50 [1, 4]: < 0.008 µM
O=C(Oc1ccc(F)cc1)N1CCc2c([nH]c3ccc(Cl)cc23)C1c1ccc(OCCCCl)cc1 (centres unmarked) [Compound 712] | < 0.008 | 
O=C(Oc1ccc(Cl)cc1)N1CCc2c([nH]c3ccc(Cl)cc23)[C@@H]1c1ccc(OCCCNCCO)cc1 [Compound 1257] |  | EC50 [1, 2]: 0.008 to 0.04 µM
COc1ccc(C2c3[nH]c4ccc(C)cc4c3CCN2C(=O)Oc2ccc(Cl)cc2)cc1 (centres unmarked) [Compound 341] | 0.04 to 0.2 | 
O=C(NCC(O)CCOc1ccc([C@H]2c3[nH]c4ccc(Cl)cc4c3CCN2C(=O)Oc2ccc(Cl)cc2)cc1)c1ccccn1 (some centres unmarked) [Compound 1629] |  | EC50 [1, 4]: < 0.008 µM
COCCOc1ccc(C2c3[nH]c4ccc(Cl)cc4c3CCN2C(=O)Oc2ccccc2)cc1 (centres unmarked) [Compound 436] | < 0.008 | 
Cc1ccc(OC(=O)N2CCc3c([nH]c4ccc(Cl)cc34)[C@@H]2c2ccc(OCCC(O)Cn3nccn3)cc2)cc1 (some centres unmarked) [Compound 1290] | < 0.008 | 
CN1CCN(CC(O)COc2ccc(C3c4[nH]c5ccc(Cl)cc5c4CCN3C(=O)Oc3ccc(F)cc3)cc2)CC1 (centres unmarked) [Compound 963] |  | EC50 [1, 2]: 0.008 to 0.04 µM
O=C(Oc1ccc(Cl)cc1)N1CCc2c([nH]c3ccc(Cl)cc23)C1c1ccc(OCC(O)CN2CCSCC2)cc1 (centres unmarked) [Compound 923] |  | EC50 [1, 2]: < 0.008 µM
O=C(Oc1ccc(F)cc1)N1CCc2c([nH]c3ccc(Cl)cc23)[C@@H]1c1ccc(OC2CCOCC2)cc1 [Compound 1604] |  | EC50 [1, 4]: < 0.008 µM
CC1(C)OCC(COc2ccc([C@H]3c4[nH]c5ccc(Cl)cc5c4CCN3C(=O)Oc3ccc(Cl)cc3)cc2)CO1 [Compound 1207] | < 0.008 | 
O=C(Oc1ccc(Cl)cc1)N1CCc2c([nH]c3ccc(Cl)cc23)C1c1ccc(OCCCCNCCO)cc1 (centres unmarked) [Compound 699] |  | EC50 [1, 2]: 0.008 to 0.04 µM
O=C(Oc1ccc(Cl)cc1)N1CCc2c([nH]c3ccc(Cl)cc23)C1c1ccc(OCCn2cncn2)cc1 (centres unmarked) [Compound 840] | 0.008 to 0.04 | 
C[Si](C)(C)CCS(=O)(=O)N1CCC(Oc2ccc(C3c4[nH]c5ccc(Cl)cc5c4CCN3C(=O)Oc3ccc(Cl)cc3)cc2)CC1 (centres unmarked) [Compound 1581] |  | EC50 [1, 4]: < 0.008 µM
COc1cc(C2c3[nH]c4ccc(Cl)cc4c3CCN2C(=O)Oc2ccccc2)ccc1OCCCn1nccn1 (centres unmarked) [Compound 1145] | 0.008 to 0.04 | 
O=C(Oc1ccccc1)N1CCc2c([nH]c3ccc(Cl)cc23)C1c1ccc(OCCCn2ccnc2)cc1 (centres unmarked) [Compound 911] | < 0.008 | 
O=C(Oc1ccccc1)N1CCc2c([nH]c3ccc(Cl)cc23)C1c1ccc(OCCCn2cncn2)cc1 (centres unmarked) [Compound 891] | < 0.008 | 
